Experimental data taken from patent publication US11458141B2, “Aryl hydrocarbon receptor (AhR) agonists for the prevention and treatment of inflammatory disorders” (The Johns Hopkins University, priority 2017, dated 2022).

How the values were obtained:
[1] = system: aryl hydrocarbon receptor (AHR) signaling; assay: Cypla1 mRNA (AHR signaling) in ileum of mice with experimental NEC, qPCR; type: in vivo, mouse; details: 4 days, vs vehicle
Protocol: (§1) Necrotizing enterocolitis (NEC) was induced in 7-day-old mouse pups by gavage feeding and hypoxia exposure for 4 days in presence of abacavir, lansoprazole, tranilast and raberprazole. The ileum was harvested at the end of the experiment and the mRNA expression of target genes was analyzed by qPCR.
Referring now to FIG. 1, the mRNA expression of Cypla1, the down-stream gene of aryl hydrocarbon receptor (AHR) signaling, was quantified in the ileum of experimental NEC models. Data are represented as mean±SEM; *p<0.05 between indicated groups; each dot represents an individual mouse.

[2] = system: mice with NEC; assay: mRNA of proinflammatory cytokines and NEC markers in ileum of mice with experimental NEC, qPCR; type: in vivo, mouse; details: vs vehicle-treated group
Protocol: as §1
Referring now to FIG. 2, the mRNA expression of pro-inflammatory cytokine tumor necrosis factor alpha (Tnf) was quantified in the ileum of experimental NEC models. Data are represented as mean±SEM; *p<0.05 between indicated groups; each dot represents an individual mouse.
Referring now to FIG. 3, the mRNA expression of pro-inflammatory Interleukin-6 (IL-6) was quantified in the ileum of experimental NEC models. Data are represented as mean±SEM; *p<0.05 between indicated groups; each dot represents an individual mouse.
Referring now to FIG. 4, the mRNA expression of NEC marker S100 calcium binding protein A8 (S100a8) was quantified in the ileum of experimental NEC models. Data are represented as mean±SEM; *p<0.05 between indicated groups; each dot represents an individual mouse.
Referring now to FIG. 5, the mRNA expression of NEC marker lipocalin 2 (Lcn2) was quantified in the ileum of experimental NEC models. Data are represented as mean±SEM; *p<0.05 between indicated groups; each dot represents an individual mouse.
Referring now to FIG. 6, the mRNA expression of NEC marker intestinal fatty acid-binding protein (iFabp) was quantified in the ileum of experimental NEC models. Data are represented as mean±SEM; *p<0.05 between indicated groups; each dot represents an individual mouse.

Structure (SMILES)	mRNA expression of Cypla1, the down-stream gene of AHR signaling [1]	mRNA expression of Interleukin-6 (IL-6) [2]	mRNA expression of NEC marker S100a8 [2]	mRNA expression of NEC marker lipocalin 2 (Lcn2) [2]	mRNA expression of tumor necrosis factor alpha (Tnf) [2]	mRNA expression of NEC marker iFabp [2]
Nc1nc(NC2CC2)c2ncn([C@H]3C=C[C@@H](CO)C3)c2n1 [abacavir]	activated AHR signaling pathway	significantly attenuated IL-6 expression	significantly attenuated S100a8 expression	significantly attenuated Lcn2 expression	significantly attenuated Tnf expression	
Cc1c(OCC(F)(F)F)ccnc1C[S+]([O-])c1nc2ccccc2[nH]1 (centres unmarked) [lansoprazole]	activated AHR signaling pathway	significantly attenuated IL-6 expression	significantly attenuated S100a8 expression	significantly attenuated Lcn2 expression	significantly attenuated Tnf expression	significantly attenuated iFabp expression
COCCCOc1ccnc(C[S+]([O-])c2nc3ccccc3[nH]2)c1C (centres unmarked) [raberprazole]	nor raberprazole, activated AHR signaling pathway		significantly attenuated S100a8 expression			significantly attenuated iFabp expression
